Assay results: patent publication US4518587A, “Dipeptides of L-5-hydroxytryptophan, processes for their preparation and drugs in which they are present” (S.A. Panmedica, priority 1983, dated 1985)
Read-outs that look alike come from different tables or passages of the source. Square brackets hold non-standard residues; d marks the D form. Peptide text beside a SMILES is read from it. * marks the point of attachment. Trp(5-OH) = N[C@@H](Cc1c[nH]c2ccc(O)cc12)C(=O)O; OtBu = CC(C)(C)O*; tBu = CC(C)(C)*

Tested on: brain levels of L-5-hydroxytryptophan (L-5-HTP), serotonin (5-HT) and 5-hydroxyindoleacetic acid (5-HIAA)
Test: Biochemical analysis of brain levels of L-5-HTP, 5-HT and 5-HIAA one hour after a single dose (technique of CURZON and GREEN)
Type: in vivo, rats
Conditions: for change in vivo at 10 mg/kg / change in vivo at 25 mg/kg / change in vivo at 50 mg/kg: Rattus norvegicus, 1 h; for change in vivo at 10 mg/kg: read-out: %, relative to the controls, of L-5-HTP at dose of 10 mg/kg
Procedure: Biochemical analysis of the brain levles of L-5-hydroxytryptophan (L-5-HTP), serotonin (5-HT) and its first metabolite, 5-hydroxyindoleacetic acid (5- HIAA), was carried out one hour after the administration of a single dose to adult rats by the technique of CURZON and GREEN. Three doses were studied, i.e. 10, 25 and 50 mg/kg, 10 animals being used per dose. Table I below indicates the percentage increases in 5-HTP, 5-HT and 5-HIAA relative to the levels found in the control animals: […]

[1] = brain level, adult rats, single dose 10 mg/kg, one hour after administration, percentage increase relative to control animals
[2] = brain level, adult rats, single dose 25 mg/kg, one hour after administration, percentage increase relative to control animals
[3] = brain level, adult rats, single dose 50 mg/kg, one hour after administration, percentage increase relative to control animals
[4] = brain level, adult rats, single dose 25 mg/kg, one hour after administration, percentage increase relative to control animals, read-out: %, relative to the controls, of L-5-HTP at dose of 25 mg/kg
[5] = brain level, adult rats, single dose 50 mg/kg, one hour after administration, percentage increase relative to control animals, read-out: %, relative to the controls, of 5-HT at dose of 50 mg/kg
[6] = brain level, adult rats, single dose 50 mg/kg, one hour after administration, percentage increase relative to control animals, read-out: %, relative to the controls, of L-5-HTP at dose of 50 mg/kg
[7] = brain level, adult rats, single dose 25 mg/kg, one hour after administration, percentage increase relative to control animals, read-out: %, relative to the controls, of 5-HIAA at dose of 25 mg/kg
[8] = brain level, adult rats, single dose 50 mg/kg, one hour after administration, percentage increase relative to control animals, read-out: %, relative to the controls, of 5-HIAA at dose of 50 mg/kg
[9] = read-out: %, relative to the controls, of 5-HIAA at dose of 25 mg/kg
[10] = read-out: %, relative to the controls, of 5-HIAA at dose of 50 mg/kg

Molecule	%, relative to the controls, of 5-HIAA at dose of 10 mg/kg [1]	%, relative to the controls, of 5-HT at dose of 10 mg/kg [1]	%, relative to the controls, of 5-HIAA at dose of 25 mg/kg [2]	%, relative to the controls, of 5-HT at dose of 25 mg/kg [2]	%, relative to the controls, of L-5-HTP at dose of 25 mg/kg [2]	%, relative to the controls, of 5-HIAA at dose of 50 mg/kg [3]	%, relative to the controls, of 5-HT at dose of 50 mg/kg [3]	%, relative to the controls, of L-5-HTP at dose of 50 mg/kg [3]	change in vivo at 50 mg/kg [5]	further results
COC(=O)[C@H](Cc1ccc(O)cc1)NC(=O)[C@@H](N)Cc1c[nH]c2ccc(O)cc12.Cl [Example 5, Methyl ester of 5-hydroxy-L-tryptophyl-L-tyrosine hydrochloride] (H-[Trp(5-OH)]-Tyr-OMe)	55%	12%	160%	10%	450%	170%	40%	1200%	–	%, relative to the controls, of L-5-HTP at dose of 10 mg/kg [1]: 200%
CC(C)(C)OC[C@H](NC(=O)[C@@H](N)Cc1c[nH]c2ccc(O)cc12)C(=O)OC(C)(C)C [Example 15, Tert.-butyl ester of L-5-hydroxytryptophyl-O-tert.-butyl-L-serine] (H-[Trp(5-OH)]-Ser(tBu)-OtBu)	–	–	60%	–	400%	150%	–	900%	–	%, relative to the controls, of L-5-HTP at dose of 10 mg/kg [1]: 200%
5-Hydroxy-L-tryptophyl-5-hydroxy-L-tryptophan hemihydrate [Example 13]	–	–	–	5%	50%	10%	5%	50%	–	–
N[C@@H](Cc1c[nH]c2ccc(O)cc12)C(=O)N[C@@H](Cc1c[nH]c2ccccc12)C(=O)O [Example 14, 5-Hydroxy-L-tryptophyl-L-tryptophan] (H-[Trp(5-OH)]-Trp-OH)	–	–	–	12%	–	–	–	–	10%	change in vivo at 10 mg/kg [1]: 50%; change in vivo at 25 mg/kg [4]: 100%; change in vivo at 50 mg/kg [6]: 200%
COC(=O)[C@H](Cc1c[nH]cn1)NC(=O)[C@@H](N)Cc1c[nH]c2ccc(O)cc12 [Example 22, METHYL ESTER OF 5-HYDROXY-L-TRYPTOPHYL-L-HISTIDINE] (H-[Trp(5-OH)]-His-OMe)	40%	–	140%	15%	200%	300%	15%	300%	–	–
N[C@@H](Cc1c[nH]c2ccc(O)cc12)C(=O)N[C@@H](CO)C(=O)O [Example 16, L-5-HYDROXYTRYPTOPHYL-L-SERINE] (H-[Trp(5-OH)]-Ser-OH)	10%	–	–	–	–	–	–	–	15%	change in vivo at 10 mg/kg [1]: 170%; change in vivo at 25 mg/kg [7]: 30%; change in vivo at 50 mg/kg [8]: 150%; change in vivo at 50 mg/kg [6]: 900%
N[C@@H](Cc1c[nH]c2ccc(O)cc12)C(=O)NCC(=O)O [Example 19, 5-HYDROXY-L-TRYPTOPHYLGLYCINE] (H-[Trp(5-OH)]-Gly-OH)	75%	30%	–	12%	–	–	–	–	30%	change in vivo at 25 mg/kg [7]: 170%; change in vivo at 25 mg/kg [4]: 700%; change in vivo at 50 mg/kg [8]: 350%
5-Hydroxy-L-tryptophyl-γ-aminobutyric acid [Example 20]	40%	5%	100%	5%	200%	150%	15%	400%	–	%, relative to the controls, of L-5-HTP at dose of 10 mg/kg [1]: 60%
C[C@H](NC(=O)[C@@H](N)Cc1c[nH]c2ccc(O)cc12)C(=O)O.O [Example 8, 5-HYDROXY-L-TRYPTOPHYL-L-ALANINE HYDRATE] (H-[Trp(5-OH)]-Ala-OH)	75%	–	–	5%	–	–	–	–	–	change in vivo at 25 mg/kg [9]: 140%; change in vivo at 50 mg/kg [10]: 400%; change in vivo at 10 mg/kg: 200%
CCOC(=O)CC[C@H](NC(=O)[C@@H](N)Cc1c[nH]c2ccc(O)cc12)C(=O)OCC.Cl [Example 3, Diethyl 5-hydroxy-L-tryptophyl-L-glutamate hydrochloride] (H-[Trp(5-OH)]-Glu(OEt)-OEt)	50%	10%	–	–	–	–	–	–	200%	change in vivo at 10 mg/kg [1]: 100%; change in vivo at 25 mg/kg [7]: 150%; change in vivo at 25 mg/kg [4]: 400%; change in vivo at 50 mg/kg [8]: 200%
N[C@@H](Cc1c[nH]c2ccc(O)cc12)C(=O)N[C@@H](Cc1ccccc1)C(=O)O [Example 12, 5-HYDROXY-L-TRYPTOPHYL-L-PHENYLALANINE] (H-[Trp(5-OH)]-Phe-OH)	–	–	–	–	–	–	–	–	–	change in vivo at 25 mg/kg [9]: 140%; change in vivo at 50 mg/kg [10]: 180%; change in vivo at 50 mg/kg (read-out: %, relative to the controls, of 5-HT at dose of 50 mg/kg): 25%; change in vivo at 10 mg/kg: 170%; change in vivo at 25 mg/kg (read-out: %, relative to the controls, of L-5-HTP at dose of 25 mg/kg): 500%
NC(=O)[C@@H](N)Cc1c[nH]c2ccc(O)cc12.O [Example 21, 5-HYDROXY-L-TRYPT[…]]	30%	–	–	–	–	–	–	–	–	–
